US11136301B2, “Broad spectrum antiviral compounds and uses thereof” (The Regents Of The University Of California, priority 2015, dated 2021)
Entries after “also recorded” stand apart in the source; their conditions may differ. Where two headings read alike, the source gives them in different places.

Experiments:
Zika virus = experiment: Zika viral replication inhibition; type: cell-based; conditions: FIG. 20
Ebola virus = type: cell-based; conditions: FIG. 19
[1] = test system: wild-type HIV-1 (HIV-1LAI) in H9 cells (non-permissive); experiment: microbe, parasite or virus in culture; type: cell-based
[2] = test system: wild-type HIV-1 (HIV-1LAI) in MT-4 cells (permissive); experiment: Antiviral activity assay: wild-type HIV-1 in permissive MT4 cells, reverse transcriptase activity in culture supernatants; type: cell-based
[3] = test system: A3G and Vif levels in HSP90 or Cul5 knockdown cells
HSP90 = experiment: ViTAP (Vif inhibitor Target Affinity Purification): streptavidin affinity purification of compound-bound proteins; type: binding
[4] = test system: A3G, Vif, p24, HSP90 in HIV-1LAI-infected H9 and MT4 cells; experiment: Protein analysis (immunoblot) of HIV-1 infected H9 and MT4 cells; type: cell-based; conditions: for HIV-1 p24 levels: 72 h
Experimental: Non-permissive (H9) and permissive (MT4) cells were treated with 1% DMSO, IMA82, or 17-DMAG overnight and then infected with HIV-1LAI for 5 h. Cells were washed three times with PBS and cultured in medium for 72 h in the presence of the same concentrations of DMSO, IMA82, or 17-DMAG. Total cell lysates were prepared with M-PER buffer containing 0.5% Triton X-100, 150 mM NaCl, 5 mM EDTA, and protease inhibitor cocktail. Protein concentrations were determined with the DC protein assay kit (Bio-Rad). Immunoblotting was performed as described above.

[5] = test system: HSP90-A3G interaction (GST-Hsp90, recombinant human A3G); experiment: In vitro binding of purified GST-HSP90 and recombinant A3G; conditions: purified proteins, 50 μM in 1% DMSO
[6] = test system: polyubiquitination of A3G and Vif; experiment: Ubiquitination assay in 293FT cells; type: cell-based; conditions: 293FT cells expressing HA-A3G and GFP-Vif, 10 μM, ALLN
Experimental: Cells were incubated with or without 10 μM of IMA82, IMD55, or IMD64 for 16 h, and then with or without 10 μM of the calpain inhibitor ALLN for 4 h. The cells were washed once with PBS and lysed. Samples of 200 μg protein were immunoprecipitated by the addition of rat anti-HA (Roche) or mouse anti-GFP (Wako) antibodies (7 μg) and 50 μl protein G DYNABEADS® (Invitrogen) and rotated at RT for 2 h. The beads were washed three times with PBS containing 0.05% Tween 20 and boiled in 5×SDS sample buffer. The denatured proteins were resolved and electroblotted onto PVDF membranes. The membranes were probed with rabbit anti-ubiquitin, rabbit anti-HA, or rabbit anti-GFP antibodies, as described above.

[7] = test system: A3G and Vif levels in HSP90 or Cul5 knockdown cells; experiment: Knockdown of Hsp90 and Cul5 followed by IMA82 treatment, immunoblot
[8] = test system: HA-tagged A3G and GFP-tagged Vif or ΔVif in 293FT cells; experiment: Immunoblot of A3G and Vif levels in transfected 293FT cells; conditions: 16 h
[9] = test system: Vif-A3G-HSP90-Cul5-CBF-β E3 ligase complex; experiment: Immunoprecipitation of IMA82-interacting proteins / E3 ligase complex; type: cell-based
Experimental: Cells were washed twice with PBS and lysed in IP lysis buffer (Thermo) or in a buffer composed of 50 mM Tris-HCl (pH 7.2), 150 mM NaCl, 1% NP-40, 10% glycerol, and protease inhibitor cocktail. Cell lysates ([…]) were incubated with 5 μl of rat anti-HA (Roche), rabbit anti-GFP (Cell Signaling), mouse anti-Hsp90 (Millipore), or rabbit anti-Cul5 (Sigma) plus 30 μl of protein A or G DYNABEADS® (Invitrogen) and rotated at RT for 2 h. The beads were washed three times with PBS containing 0.05% Tween 20. Each lysate was immunoprecipitated in triplicate and the beads were combined. Immune complexes were eluted by boiling in 5×SDS sample buffer. The proteins were separated by SDS-PAGE and analyzed by immunoblotting with antibodies to HA (A3G), GFP (Vif), Hsp90, Cul5, and CBF-β, as described above.

[10] = test system: wild-type HIV-1 (HIV-1LAI) in MT-4 cells (permissive); conditions: 100 μM; cited from earlier work
[11] = test system: wild-type HIV-1 (HIV-1LAI) in H9 cells (non-permissive); conditions: earlier finding on RN-18; cited from earlier work
HIV-1 in CEM cells = conditions: CEM cells (non-permissive); cited from earlier work
[12] = test system: APOBEC3G, Vif and cellular Hsp90 substrates (AKT, HER2); experiment: Western blot of viral and cellular proteins in 293T cells co-transfected with HIV-1 (pLAI2) and HA-tagged APOBEC3G; type: cell-based; conditions: 50 μM, 24 h
Experimental: FIG. 13. […] 293T cells were co-transfected with HIV-1 (pLAI2) and HA-tagged APOBEC3G vectors and cultured for 24 h in the presence (+) or absence (−) of 50 μM RN-18. Cell lysates were collected and used for Western blot analysis with antibodies against the viral and cellular proteins indicated. Levels of cellular GAPDH were used as a loading control.
Both RN-18 and 17-AAG interact with HSP90 in Cul5 mediated E3 ligase complex. […] Cell lysates were prepared and various viral and cellular protein levels were analyzed by immunoblotting (FIG. 13). Levels of cellular GAPDH were used as loading controls.

[13] = Human immunodeficiency virus 1, H9, read-out: Antiviral activity (IC50 μM) H9 cells, Table 5, wild-type HIV-1, non-permissive H9 cells
[14] = Human immunodeficiency virus 1, H9, read-out: Antiviral activity (IC50 μM) H9 cells, Table 8, wild-type HIV-1, non-permissive H9 cells
[15] = Human immunodeficiency virus 1, H9, read-out: Antiviral activity (IC50 μM) H9 cells, wild-type HIV-1 (HIV-1LAI), H9 cells (non-permissive), RT activity in culture supernatants, compounds 1 to 50 μM
[16] = Human immunodeficiency virus 1, H9, read-out: IC50, anti-HIV-1 activity, non-permissive H9 cells

Q: With `COC(=O)c1ccc(Sc2ccccc2-c2cn(-c3ccc(OC)cc3OC)nn2)cc1` [Compound 4bx, Methyl 4-((2-(1-(2,4-dimethoxyphenyl)-1H-1,2,3-triazol-4-yl)phenyl)thio)benzoate] as the molecule, how does the Zika viral replication (Zika virus) read?
A: Zika viral replication inhibition

Q: And the Ebola viral replication (Ebola virus)?
A: Ebola viral replication inhibition

Q: And the IC50 [1, 13]?
A: 2 µM

Q: What about the IC50 [1, 14] of the same molecule?
A: 2 µM

Q: And the IC50 [1, 15]?
A: 2 µM

Q: With `COc1ccc(OC)c(-n2cc(-c3ccccc3S(=O)(=O)c3ccc([N+](=O)[O-])cc3)nn2)c1` [Compound 5ay, 1-(2,5-Dimethoxyphenyl)-4-(2-((4-nitrophenyl)sulfonyl)phenyl)-1H-1,2,3-triazole] as the molecule, how does the IC50 ([2]; Human immunodeficiency virus 1, MT4, Table 2, wild-type HIV-1, permissive MT4 cells, read-out: Antiviral activity (IC50 μM) MT4) read?
A: > 50 µM

Q: What about the IC50 ([2]; Human immunodeficiency virus 1, MT4, wild-type HIV-1 (HIV-1LAI), MT4 cells (permissive), RT activity in culture supernatants, compounds 1 to 50 μM, read-out: Antiviral activity (IC50 μM) MT4 cells) of the same molecule?
A: > 50 µM

Q: What about the Ebola viral replication (Ebola virus) of the same molecule?
A: Ebola viral replication inhibition

Q: And the IC50 ([1]; Human immunodeficiency virus 1, H9, read-out: Antiviral activity (IC50 μM) H9, Table 2, wild-type HIV-1, non-permissive H9 cells)?
A: 1 µM

Q: And the IC50 ([1]; Human immunodeficiency virus 1, H9, read-out: Antiviral activity (IC50 μM) H9 Cells, Table 4, wild-type HIV-1, non-permissive H9 cells)?
A: 1 µM

Q: And the IC50 ([1]; Human immunodeficiency virus 1, H9, read-out: Antiviral activity (IC50 μM) H9 Cells, Table 7, wild-type HIV-1, non-permissive H9 cells)?
A: 1 µM

Q: What about the IC50 [1, 13] of the same molecule?
A: 1 µM

Q: What about the IC50 [1, 14] of the same molecule?
A: 1 µM

Q: And the IC50 [1, 15]?
A: 1 µM

Q: What about the IC50 [1, 16] of the same molecule?
A: 1 to 3 µM

Q: With `COc1cc(C(=O)NCCOCCOCCOCCNC(=O)CCCCC2SCC3NC(=O)NC32)ccc1NC(=O)c1ccc(Sc2ccc([N+](=O)[O-])cc2)cc1Cl` (centres unmarked) [IMA82, 2-chloro-N-(2-methoxy-4-((13-oxo-17-(2-oxohexahydro-1H-thieno[3,4-d]imidazol-4-yl)-3,6,9-trioxa-12-azaheptadecyl)carbamoyl)phenyl)-4-((4-nitrophenyl)thio)benzamide] as the molecule, how does the “A3G or Vif levels” value [3] read?
A: no effect

Q: And the “co-purification of HSP90 (90 kDa protein) with the compound” value (HSP90; transfected 293FT cells, streptavidin affinity purification)?
A: HSP90 is targeted; also recorded: purified a specific 90 kDa protein; also recorded: co-purified with IMA82; also recorded: specifically interacts with HSP90

Q: And the A3G levels ([4]; HIV-1-infected H9 cells)?
A: restored A3G levels

Q: What about the Vif levels ([4]; HIV-1-infected H9 cells) of the same molecule?
A: decreased Vif levels

Q: What about the “HIV-1 p24 levels” value ([4]; HIV-1LAI-infected H9 cells) of the same molecule?
A: reduced

Q: And the “HIV-1 p24 levels” value ([4]; HIV-1LAI-infected MT4 cells)?
A: not MT4 cells

Q: What about the “A3G binding to GST-HSP90” value [5] of the same molecule?
A: block APOBEC3G association; also recorded: inhibited A3G binding to GST-HSP90

Q: What about the A3G ubiquitination [6] of the same molecule?
A: not observed; also recorded: reduced

Q: And the Vif ubiquitination [6]?
A: ubiquitinated; also recorded: increased

Q: What about the “A3G or Vif levels” value ([7]; Cul5-depleted 293FT-A3G-Vif cells) of the same molecule?
A: no further effect

Q: And the A3G levels ([7]; control siRNA (siNT) 293FT-A3G-Vif cells)?
A: rescue of A3G levels

Q: And the “viral replication (reverse transcriptase activity in supernatants)” value ([1]; H9 cells, HIV-1LAI, up to 50 μM, 15 days)?
A: dose-dependently inhibited viral replication

Q: What about the A3G expression ([8]; 293FT cells co-expressing HA-A3G and Vif or ΔVif) of the same molecule?
A: dose-dependently restored A3G expression; also recorded: enhances APOBEC3G expression

Q: What about the “Vif expression / degradation” value ([8]; 293FT cells co-expressing HA-A3G and Vif) of the same molecule?
A: induces Cul5-mediated degradation of Vif; also recorded: enhanced Vif degradation; also recorded: reduces Vif expression

Q: And the CBF-β levels ([8]; transfected 293FT cells)?
A: no effect on levels of CBF-β

Q: And the HSP90 expression ([8]; transfected 293FT cells)?
A: did not significantly affect expression of HSP90 protein

Q: What about the “HSP90-A3G interaction, FLAG-HSP90 affinity purification” value ([9]; 293FT cells transfected with FLAG-HSP90 and HA-A3G, 16 h) of the same molecule?
A: inhibited interactions of HSP90 and A3G

Q: What about the “A3G association with the immunoprecipitated E3 ligase complexes” value ([9]; 293FT-A3G-Vif and 293FT-A3G-ΔVif cells, 10 μM) of the same molecule?
A: prevents APOBEC3G association; also recorded: not present

Q: What does the source list for `COc1ccccc1NC(=O)c1ccccc1Sc1ccc([N+](=O)[O-])cc1` [RN-18, N-(2-methoxyphenyl)-2-((4-nitrophenyl)thio)benzamide]?
A: activity in MT4 cell line [10]: does not show any activity; also recorded: does not inhibit viral infectivity; inhibition of IMA82 (25 μM) binding to FLAG-tagged HSP90 (HSP90; competitive binding, 0-30 μM competitor, 293FT cells): dose-dependently inhibited; IC50 ([2]; Human immunodeficiency virus 1, MT4, Table 1, wild-type HIV-1, permissive MT4 cells, read-out: Antiviral activity (IC50 μM) MT4 cells): > 50 µM; IC50 ([2]; Human immunodeficiency virus 1, MT4, Table 3, wild-type HIV-1, permissive MT4 cells, read-out: Antiviral activity (IC50 μM) MT4 cells): > 50 µM; IC50 [11]: 6000 nM; viral replication (reverse transcriptase activity) ([1]; HSP90 knockdown H9 cells, 15 days): no effect; IC50 ([1]; Human immunodeficiency virus 1, H9, read-out: Antiviral activity (IC50 μM) H9 cells, Table 1, wild-type HIV-1, non-permissive H9 cells): 6 µM; IC50 ([1]; Human immunodeficiency virus 1, H9, read-out: Antiviral activity (IC50 μM) H9 cells, Table 3, wild-type HIV-1, non-permissive H9 cells): 6 µM; IC50 [1, 16]: 6 µM; viral replication (reverse transcriptase activity) ([1]; shNT control H9 cells, 15 days): inhibited viral replication; IC50 (HIV-1 in CEM cells): 4500 nM; levels of cellular Hsp90 substrates (AKT and HER2) [12]: no effect on AKT and HER2 levels; also recorded: does not affect the levels of cellular Hsp90 substrates; A3G level ([12]; HIV-1 (pLAI2) and HA-A3G): restored A3G; also recorded: specifically restores APOBEC3G; Vif level ([12]; HIV-1 (pLAI2) and HA-A3G): enhanced degradation of Vif
